The text below walks through data of patent US10858367B2, “Compounds” (GLAXOSMITHKLINE INTELLECTUAL PROPERTY DEVELOPMENT LIMITED, priority 2017, dated 2020).

SMILES strings stand for the structures. Structures can show the parent of a compound that is named as a salt.

This test deals with T1, LRRK2 Ser935 phosphorylation in SH-SY5Y cells over-expressing recombinant full length LRRK2 (Homo sapiens, UniProt Q5S007).
T1 construct: A BacMam virus expressing full length recombinant LRRK2 was purchased from Invitrogen; host or cells: SH-SY5Y human neuroblastoma cells transduced with BacMam LRRK2 virus
T1 sequence (Q5S007 whole entry): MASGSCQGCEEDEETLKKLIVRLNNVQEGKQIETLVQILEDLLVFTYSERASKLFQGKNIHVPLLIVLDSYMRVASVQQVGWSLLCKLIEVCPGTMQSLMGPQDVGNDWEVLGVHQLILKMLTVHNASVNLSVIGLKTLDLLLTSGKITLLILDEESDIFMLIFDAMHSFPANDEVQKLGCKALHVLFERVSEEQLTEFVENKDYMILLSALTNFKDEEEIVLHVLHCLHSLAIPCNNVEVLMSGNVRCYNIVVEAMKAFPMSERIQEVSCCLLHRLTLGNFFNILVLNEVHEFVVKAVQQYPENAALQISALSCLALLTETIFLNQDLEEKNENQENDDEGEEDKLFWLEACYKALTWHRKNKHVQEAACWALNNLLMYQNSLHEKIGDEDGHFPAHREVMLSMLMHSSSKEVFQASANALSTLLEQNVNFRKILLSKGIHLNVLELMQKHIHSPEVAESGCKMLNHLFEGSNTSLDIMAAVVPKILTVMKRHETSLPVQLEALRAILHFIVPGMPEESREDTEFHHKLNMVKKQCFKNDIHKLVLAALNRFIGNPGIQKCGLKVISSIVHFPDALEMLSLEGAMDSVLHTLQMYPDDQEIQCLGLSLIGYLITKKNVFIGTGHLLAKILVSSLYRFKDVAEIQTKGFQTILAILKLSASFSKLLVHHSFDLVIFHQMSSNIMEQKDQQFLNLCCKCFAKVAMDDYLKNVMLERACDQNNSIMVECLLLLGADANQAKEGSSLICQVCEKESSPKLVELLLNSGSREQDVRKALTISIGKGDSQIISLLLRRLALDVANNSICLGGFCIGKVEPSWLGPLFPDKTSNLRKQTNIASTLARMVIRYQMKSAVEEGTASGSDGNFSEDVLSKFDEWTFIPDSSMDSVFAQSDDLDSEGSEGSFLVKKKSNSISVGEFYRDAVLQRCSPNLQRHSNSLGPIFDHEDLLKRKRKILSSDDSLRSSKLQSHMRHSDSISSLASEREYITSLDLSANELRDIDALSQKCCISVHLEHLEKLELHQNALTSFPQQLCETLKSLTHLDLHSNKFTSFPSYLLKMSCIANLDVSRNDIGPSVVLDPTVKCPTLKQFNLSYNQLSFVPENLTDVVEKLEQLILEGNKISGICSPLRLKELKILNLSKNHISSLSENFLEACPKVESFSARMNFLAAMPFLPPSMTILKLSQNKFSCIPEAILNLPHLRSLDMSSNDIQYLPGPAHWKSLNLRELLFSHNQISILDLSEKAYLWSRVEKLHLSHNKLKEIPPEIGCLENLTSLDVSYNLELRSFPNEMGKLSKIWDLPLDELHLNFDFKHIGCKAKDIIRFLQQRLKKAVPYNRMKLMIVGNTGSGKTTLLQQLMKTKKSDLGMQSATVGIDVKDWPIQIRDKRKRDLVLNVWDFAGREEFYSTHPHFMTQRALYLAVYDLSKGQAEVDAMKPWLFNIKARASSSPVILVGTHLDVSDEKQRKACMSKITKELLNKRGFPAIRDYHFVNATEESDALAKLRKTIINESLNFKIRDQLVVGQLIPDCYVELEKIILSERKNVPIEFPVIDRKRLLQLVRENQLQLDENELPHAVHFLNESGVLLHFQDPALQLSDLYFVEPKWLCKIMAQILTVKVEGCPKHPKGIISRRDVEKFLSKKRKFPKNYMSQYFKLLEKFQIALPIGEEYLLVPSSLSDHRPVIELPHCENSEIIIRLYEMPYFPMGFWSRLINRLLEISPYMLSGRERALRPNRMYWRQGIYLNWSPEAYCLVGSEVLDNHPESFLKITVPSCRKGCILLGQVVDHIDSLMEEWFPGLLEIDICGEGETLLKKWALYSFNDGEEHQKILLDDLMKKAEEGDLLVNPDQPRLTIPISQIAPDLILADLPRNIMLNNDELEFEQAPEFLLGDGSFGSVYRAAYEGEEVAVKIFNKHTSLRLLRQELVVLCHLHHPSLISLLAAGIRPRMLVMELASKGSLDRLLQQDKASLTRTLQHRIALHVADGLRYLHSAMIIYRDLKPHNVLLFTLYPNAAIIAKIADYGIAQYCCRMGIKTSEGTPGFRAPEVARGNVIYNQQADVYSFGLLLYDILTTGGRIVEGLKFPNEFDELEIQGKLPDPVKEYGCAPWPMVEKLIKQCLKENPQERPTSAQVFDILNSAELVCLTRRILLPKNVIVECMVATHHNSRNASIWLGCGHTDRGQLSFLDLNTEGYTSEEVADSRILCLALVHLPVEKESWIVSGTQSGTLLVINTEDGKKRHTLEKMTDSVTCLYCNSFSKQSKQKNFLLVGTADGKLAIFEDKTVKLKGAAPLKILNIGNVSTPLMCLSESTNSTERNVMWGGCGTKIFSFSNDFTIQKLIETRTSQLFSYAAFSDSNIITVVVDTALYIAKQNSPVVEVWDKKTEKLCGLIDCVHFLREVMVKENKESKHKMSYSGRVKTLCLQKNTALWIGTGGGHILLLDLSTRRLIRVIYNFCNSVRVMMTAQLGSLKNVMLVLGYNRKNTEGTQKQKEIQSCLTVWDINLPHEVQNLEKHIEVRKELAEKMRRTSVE
Put plainly: Recombinant cellular LRRK2 AlphaScreen assay. Type of test: cell-based. The conditions noted are these: human neuroblastoma SH-SY5Y cells, BacMam full length LRRK2, 60 minutes with compound, read-out: pIC50 in the recombinant cellular LRRK2 AlphaScreen assay (converted). The source says:
b. Recombinant Cellular LRRK2 AlphaScreen Assay
To determine the activity of compounds against LRRK2 kinase activity in cells, the observed LRRK2 kinase-dependent modulation of LRRK2 Ser 935 phosphorylation (Dzamko et al., 2010, Biochem. J. 430: 405-413) was utilized to develop a quantitative 384 well plate-based immunoassay of LRRK2 Ser935 phosphorylation in the human neuroblastoma cell line SH-SY5Y, engineered to over-express recombinant full length LRRK2 protein.
A BacMam virus expressing full length recombinant LRRK2 was purchased from Invitrogen and amplified by inoculation of SF-9 cells at MOI 0.3 for 4-5 days in Sf-900 III SFM medium supplemented with 3% fetal bovine serum. Infected cell cultures were then centrifuged at 2000 g for 20 minutes, viral supernatant titer determined by anti-gp64 plaque assay and stored at 4° C.
Affinity-purified anti-phospho LRRK2 Ser935 sheep polyclonal antibody (Dzamko et al., 2010, Biochem. J. 430: 405-413) was biotinylated by standard methods (PerkinElmer). Anti-LRRK2 rabbit polyclonal antibody was purchased from Novus Biologicals. AlphaScreen Protein A IgG Kit (including acceptor and donor beads) was purchased from Perkin Elmer.
SH-SY5Y cells were grown in DMEM/F12 medium with 10% dialysed fetal bovine serum and harvested by treatment with 0.5% trypsin-EDTA for 5 minutes at 37° C. followed by centrifugation at 1000 rpm for 4 minutes. The cell pellet was resuspended in Opti-MEM reduced serum media (Invitrogen) at 200,000 cells/ml and mixed with the BacMam LRRK2 virus at MOI=50. 50 μl cell solutions were then dispensed to each well of a 384-well plate and incubated at 37° C., 5% CO2 for 24 hours.
Serial dilutions of test compounds were prepared in Opti-MEM reduced serum media (Invitrogen) and 5.6 ul transferred from compound plate to cell assay plate to achieve a top final assay concentration of 10 uM. DMSO was used in certain wells as controls. Cells were incubated at 37° C., 5% CO2 for 60 minutes. The medium was then removed and cells lysed by addition of 20 ul cell lysis buffer (Cell Signaling Technology) and incubation at 4° C. for 20 minutes. 10 ul of antibody/acceptor bead mix [(1/1000 biotinylated-pS935 LRRK2 antibody, 1/1000 total-LRRK2 antibody, 1/100 Acceptor beads in AlphaScreen detection buffer (25 mM Hepes (pH 7.4), 0.5% Triton X-100, 1 mg/ml Dextran 500 and 0.1% BSA)] was then added to each well and plates incubated for 2 hours at ambient temperature in the dark. 10 μl of donor beads solution (1/33.3 donor beads in AlphaScreen detection buffer) was then added to each well. Following incubation for a further 2 hours at ambient temperature in the dark, plates were read on an EnVision™ plate reader at emission 520-620 nm with excitation 680 nm. Dose response curve data was based on sigmoidal dose-response model.
A general note: Alpha assays give light when donor and acceptor beads are brought close together.
As to `Cc1nc(N2C[C@@H]3C[C@H]2CO3)cc(-n2ncc3cc(Cl)c(N4CCC(C)(O)CC4)cc32)n1` [Example E33, 1-(1-(6-((1S,4S)-2-oxa-5-azabicyclo[2.2.1]heptan-5-yl)-2-methylpyrimidin-4-yl)-5-chloro-1H-indazol-6-yl)-4-methylpiperidin-4-ol], the IC50 was no more than 1000 nM. As for `COc1nc(N2C[C@@H]3C[C@H]2CO3)cc(-n2ncc3cc(C)c(C4CCN(CCF)CC4)cc32)n1` [Example E38, (1S,4S)-5-(6-(6-(1-(2-fluoroethyl)piperidin-4-yl)-5-methyl-1H-indazol-1-yl)-2-methoxypyrimidin-4-yl)-2-oxa-5-azabicyclo[2.2.1]heptane], the IC50 was no more than 1000 nM.

Take `COc1nc(N2C[C@@H]3C[C@H]2CO3)cc(-n2ncc3cc(Cl)c(C4CCN(C5CCOC5)CC4)cc32)n1` (single isomer, unassigned) [Example E69]: the IC50 was no more than 1000 nM. For `Cc1nc(N2C[C@@H]3C[C@H]2CO3)cc(-n2ncc3cc(C)c([C@H]4CC[C@@](C)(O)CC4)cc32)n1` [Example E7, Cis-4-(1-(6-((1S,4S)-2-oxa-5-azabicyclo[2.2.1]heptan-5-yl)-2-methylpyrimidin-4-yl)-5-methyl-1H-indazol-6-yl)-1-methylcyclohexanol], the IC50 was no more than 1000 nM. Consider `COc1nc(N2C[C@@H]3C[C@H]2CO3)cc(-n2ncc3cc(Cl)c(C4CCN(C5COC5)CC4)cc32)n1` [Example E6, (1S,4S)-5-(6-(5-chloro-6-(1-(oxetan-3-yl)piperidin-4-yl)-1H-indazol-1-yl)-2-methoxypyrimidin-4-yl)-2-oxa-5-azabicyclo[2.2.1]heptane], for which the IC50 is no more than 1000 nM.

Turning to `COc1nc(N2C[C@@H]3C[C@H]2CO3)cc(-n2ncc3cc(C)c(C4CCN(CCO)CC4F)cc32)n1` (single isomer, unassigned) [Example E19], the IC50 is no more than 1000 nM. Regarding `COCCN1CCC(c2cc3c(cnn3-c3cc(N4C[C@H]5C[C@@H]4CO5)nc(OC)n3)cc2C)CC1` [Example E35, (1R,4R)-5-(2-methoxy-6-(6-(1-(2-methoxyethyl)piperidin-4-yl)-5-methyl-1H-indazol-1-yl)pyrimidin-4-yl)-2-oxa-5-azabicyclo[2.2.1]heptane], the IC50 was no more than 1000 nM. As to `COc1nc(N2CC3CC2CC3C(=O)O)cc(-n2ncc3cc(Cl)c(O[C@@H]4CCOC4)cc32)n1` (single isomer, unassigned) [Example E85], the IC50 was no more than 1000 nM. For the compound `Cc1nc(N2C[C@H]3C[C@@H]2CO3)cc(-n2ncc3cc(C)c(C4CCN(C5COC5)CC4)cc32)n1` [Example E39, (1R,4R)-5-(2-methyl-6-(5-methyl-6-(1-(oxetan-3-yl)piperidin-4-yl)-1H-indazol-1-yl)pyrimidin-4-yl)-2-oxa-5-azabicyclo[2.2.1]heptane], the IC50 is no more than 1000 nM.

For the compound `Cc1nc(N2CC3CC(C2)C3C(=O)O)cc(-n2ncc3cc(C)c(C4CCOCC4)cc32)n1` (centres unmarked) [Example E80, 3-{2-Methyl-6-[5-methyl-6-(tetrahydro-pyran-4-yl)-indazol-1-yl]-pyrimidin-4-yl}-3-aza-bicyclo[3.1.1]heptane-6-carboxylic Acid], the IC50 is no more than 1000 nM. For the compound `Cc1nc(N2CC3CC(C2)O3)cc(-n2ncc3cc(C)c(C4CCNCC4)cc32)n1` [Example E61, 3-(2-methyl-6-(5-methyl-6-(piperidin-4-yl)-1H-indazol-1-yl)pyrimidin-4-yl)-6-oxa-3-azabicyclo[3.1.1]heptane 2,2,2-trifluoroacetate], the IC50 is no more than 1000 nM. Turning to `Cc1nc(N2CC3CC2CO3)cc(-n2ncc3cc(C)c(C4CCN(C5COC5)CC4O)cc32)n1` (single isomer, unassigned) [Example E141], the IC50 is no more than 1000 nM. On to `Cc1nc(N2CC3CC2CO3)cc(-n2ncc3cc(C)c([C@H]4CC[C@](C)(O)CC4)cc32)n1` (single isomer, unassigned) [Example E10], for which the IC50 is no more than 1000 nM. With `COc1nc(N2C[C@H]3C[C@@H]2CO3)cc(-n2ncc3cc(C)c(C4CCN(CCF)CC4)cc32)n1` [Example E37, (1R,4R)-5-(6-(6-(1-(2-fluoroethyl)piperidin-4-yl)-5-methyl-1H-indazol-1-yl)-2-methoxypyrimidin-4-yl)-2-oxa-5-azabicyclo[2.2.1]heptane] the figure was no more than 1000 nM.

For the compound `Cc1nc(N2CC3CC2CC3C(=O)O)cc(-n2ncc3cc(C)c(C4CCC(C)(O)CC4)cc32)n1` (single isomer, unassigned) [Example E76, 2-(6-(6-(cis-4-hydroxy-4-methylcyclohexyl)-5-methyl-1H-indazol-1-yl)-2-methylpyrimidin-4-yl)-2-azabicyclo[2.2.1]heptane-5-carboxylic Acid, TFA Salt], the IC50 was no more than 10 nM.

For the compound `COc1nc(N2CC3CC(C2)O3)cc(-n2ncc3cc(C)c(C4CCN(C5COC5)CC4)cc32)n1` [Example E43, 3-(2-Methoxy-6-(5-methyl-6-(1-(oxetan-3-yl)piperidin-4-yl)-1H-indazol-1-yl)pyrimidin-4-yl)-6-oxa-3-azabicyclo[3.1.1]heptane], the IC50 is no more than 1000 nM. As to `[2H]C([2H])([2H])Oc1nc(N2C[C@@H]3C[C@H]2CO3)cc(-n2ncc3cc(C)c(C4CCN(C5COC5)CC4)cc32)n1` [Example E73, (1S,4S)-5-(6-(5-methyl-6-(1-(oxetan-3-yl)piperidin-4-yl)-1H-indazol-1-yl)-2-(trideuteriummethoxy)pyrimidin-4-yl)-2-oxa-5-azabicyclo[2.2.1]heptane], the IC50 was no more than 1000 nM. To `Cc1nc(N2CC3CC2CO3)cc(-n2ncc3cc(C)c(C4CCN(CCO)CC4F)cc32)n1` (single isomer, unassigned) [Example E23] belongs no more than 1000 nM; to `Cc1nc(N2C[C@H]3C[C@@H]2CO3)cc(-n2ncc3cc(C)c(C4CCN(C5COC5)CC4(C)O)cc32)n1` (single isomer, unassigned) [Example E147], no more than 1000 nM; to `COc1nc(N2C[C@H]3C[C@@H]2CO3)cc(-n2ncc3cc(C)c(C4CCN(CCO)CC4F)cc32)n1` (single isomer, unassigned) [Example E17], no more than 10 nM.

Regarding `COc1nc(N2C[C@@H]3C[C@H]2CO3)cc(-n2ncc3cc(C)c(C4CCN(CCC(=O)O)CC4)cc32)n1` [Example E165, 3-(4-(1-(6-((1S,4S)-2-oxa-5-azabicyclo[2.2.1]heptan-5-yl)-2-methoxypyrimidin-4-yl)-5-methyl-1H-indazol-6-yl)piperidin-1-yl)propanoic Acid], the IC50 was no more than 1000 nM. Take `COc1nc(N2CC3CCC(C2)O3)cc(-n2ncc3cc(C)c(C4CCNCC4)cc32)n1` [Example E62, 3-(2-methoxy-6-(5-methyl-6-(piperidin-4-yl)-1H-indazol-1-yl)pyrimidin-4-yl)-8-oxa-3-azabicyclo[3.2.1]octane 2,2,2-trifluoroacetate]: the IC50 is no more than 1000 nM. With `Cc1nc(N2C[C@H]3C[C@@H]2CO3)cc(-n2ncc3cc(C)c(C4CCN(CCO)CC4)cc32)n1` [Example E51, 2-(4-(1-(6-((1R,4R)-2-oxa-5-azabicyclo[2.2.1]heptan-5-yl)-2-methylpyrimidin-4-yl)-5-methyl-1H-indazol-6-yl)piperidin-1-yl)ethanol] the figure was no more than 1000 nM; with `COc1nc(N2CC3CC(C2)O3)cc(-n2ncc3cc(C)c(C4CCNCC4)cc32)n1` [Example E60, 3-(2-methoxy-6-(5-methyl-6-(piperidin-4-yl)-1H-indazol-1-yl)pyrimidin-4-yl)-6-oxa-3-azabicyclo[3.1.1]heptane 2,2,2-trifluoroacetate], no more than 1000 nM; with `Cc1nc(N2C[C@H]3C[C@@H]2CO3)cc(-n2ncc3cc(C)c(C4CCN(CCC(=O)O)CC4F)cc32)n1` (single isomer, unassigned) [Example E155], no more than 1000 nM. To `Cc1nc(N2C[C@@H]3C[C@H]2CO3)cc(-n2ncc3cc(C)c(C4CCN(CCO)CC4)cc32)n1` [Example E52, 2-(4-(1-(6-((1S,4S)-2-oxa-5-azabicyclo[2.2.1]heptan-5-yl)-2-methylpyrimidin-4-yl)-5-methyl-1H-indazol-6-yl)piperidin-1-yl)ethanol] belongs no more than 1000 nM.
